Data as given in ChEMBL document CHEMBL4364319 (Eur J Med Chem, 2019).

Experiments:
[1] = Clearance in Sprague-Dawley rat at 5 mg/kg, iv measured after 48 hrs by LC-MS/MS analysis; format: ADME, organism-based; settings: in vivo
[2] = Stability in PBS at pH 7.4 assessed as compound remaining at 1 uM after 120 mins by LC-MS/MS analysis relative to control; format: physicochemical; settings: read-out: Stability
[3] = Stability in Sprague-Dawley rat plasma assessed as compound remaining at 1 uM measured up to 120 mins by LC-MS/MS analysis relative to control; format: ADME, cell-free; settings: read-out: Stability
[4] = Oral bioavailability in Sprague-Dawley rat at 10 mg/kg via gavage after 48 hrs by LC-MS/MS analysis; format: ADME, organism-based; settings: in vivo
[5] = AUC (0 to infinity) in Sprague-Dawley rat at 5 mg/kg, iv measured after 48 hrs by LC-MS/MS analysis; format: ADME, organism-based; parameters: dose 5 mg/kg, route intravenous, time infinity; settings: in vivo
[6] = Cytotoxicity against human LO2 cells assessed as cell viability at 50 uM after 48 hrs by MTT assay; format: cell-based, L02; settings: read-out: Activity
[7] = target: Dipeptidyl peptidase 9 (Homo sapiens, UniProt Q86TI2); test: Inhibition of DPP9 (unknown origin) using Gly-Pro-AMC as substrate preincubated for 15 mins followed by substrate addition measured at 60 secs interval for 20 mins by fluorometic method
[8] = Cmax in Sprague-Dawley rat at 5 mg/kg, iv measured after 48 hrs by LC-MS/MS analysis; format: ADME, organism-based; parameters: dose 5 mg/kg, route intravenous; settings: in vivo
[9] = target: Dipeptidyl peptidase 8 (Homo sapiens, UniProt Q6V1X1); test: Inhibition of DPP8 (unknown origin) using Gly-Pro-AMC as substrate preincubated for 15 mins followed by substrate addition measured at 60 secs interval for 20 mins by fluorometic method
[10] = Half life in Sprague-Dawley rat at 5 mg/kg, iv measured after 48 hrs by LC-MS/MS analysis; format: ADME, organism-based; settings: in vivo
[11] = Cytotoxicity against human LO2 cells assessed as cell viability at 10 uM after 48 hrs by MTT assay; format: cell-based, L02; settings: read-out: Activity
[12] = Stability in Sprague-Dawley rat plasma assessed as drug degradation at 1 uM after 120 mins by LC-MS/MS analysis relative to control relative to control; format: ADME, cell-free; settings: read-out: Drug degradation
[13] = Drug degradation in PBS at pH 7.4 at 1 uM after 120 mins by LC-MS/MS analysis relative to control; format: physicochemical; settings: read-out: Drug degradation
[14] = Stability in Sprague-Dawley rat plasma assessed as drug degradation at 1 uM after 5 mins by LC-MS/MS analysis relative to control relative to control; format: ADME, cell-free; settings: read-out: Drug degradation
[15] = Cytotoxicity against human LO2 cells assessed as cell viability at 20 uM after 48 hrs by MTT assay; format: cell-based, L02; settings: read-out: Activity

Chain of Dipeptidyl peptidase 8 (Q6V1X1 whole entry): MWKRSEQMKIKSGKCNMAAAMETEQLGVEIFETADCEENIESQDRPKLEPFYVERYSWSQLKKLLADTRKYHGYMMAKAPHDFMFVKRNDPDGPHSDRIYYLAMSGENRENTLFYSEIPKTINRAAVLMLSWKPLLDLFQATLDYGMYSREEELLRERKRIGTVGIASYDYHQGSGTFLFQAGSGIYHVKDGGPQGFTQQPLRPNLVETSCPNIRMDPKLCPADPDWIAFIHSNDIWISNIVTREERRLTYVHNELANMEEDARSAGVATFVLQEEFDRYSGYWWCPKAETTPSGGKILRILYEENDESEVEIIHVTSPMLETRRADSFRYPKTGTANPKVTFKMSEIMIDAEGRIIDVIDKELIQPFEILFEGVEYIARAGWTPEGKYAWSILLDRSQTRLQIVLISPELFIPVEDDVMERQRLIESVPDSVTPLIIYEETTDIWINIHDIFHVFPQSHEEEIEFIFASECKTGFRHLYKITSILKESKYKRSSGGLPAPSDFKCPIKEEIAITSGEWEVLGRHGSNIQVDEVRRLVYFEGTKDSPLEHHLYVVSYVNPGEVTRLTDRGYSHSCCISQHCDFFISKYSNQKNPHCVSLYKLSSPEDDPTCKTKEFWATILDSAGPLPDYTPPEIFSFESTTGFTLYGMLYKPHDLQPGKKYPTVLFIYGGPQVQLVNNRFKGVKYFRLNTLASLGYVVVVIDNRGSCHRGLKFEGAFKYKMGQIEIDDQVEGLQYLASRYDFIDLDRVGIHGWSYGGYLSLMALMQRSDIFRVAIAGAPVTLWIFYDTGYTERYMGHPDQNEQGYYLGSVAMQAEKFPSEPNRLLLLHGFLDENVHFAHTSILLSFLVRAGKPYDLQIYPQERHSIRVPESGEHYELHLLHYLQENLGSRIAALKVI
Chain of Dipeptidyl peptidase 9 (Q86TI2 whole entry): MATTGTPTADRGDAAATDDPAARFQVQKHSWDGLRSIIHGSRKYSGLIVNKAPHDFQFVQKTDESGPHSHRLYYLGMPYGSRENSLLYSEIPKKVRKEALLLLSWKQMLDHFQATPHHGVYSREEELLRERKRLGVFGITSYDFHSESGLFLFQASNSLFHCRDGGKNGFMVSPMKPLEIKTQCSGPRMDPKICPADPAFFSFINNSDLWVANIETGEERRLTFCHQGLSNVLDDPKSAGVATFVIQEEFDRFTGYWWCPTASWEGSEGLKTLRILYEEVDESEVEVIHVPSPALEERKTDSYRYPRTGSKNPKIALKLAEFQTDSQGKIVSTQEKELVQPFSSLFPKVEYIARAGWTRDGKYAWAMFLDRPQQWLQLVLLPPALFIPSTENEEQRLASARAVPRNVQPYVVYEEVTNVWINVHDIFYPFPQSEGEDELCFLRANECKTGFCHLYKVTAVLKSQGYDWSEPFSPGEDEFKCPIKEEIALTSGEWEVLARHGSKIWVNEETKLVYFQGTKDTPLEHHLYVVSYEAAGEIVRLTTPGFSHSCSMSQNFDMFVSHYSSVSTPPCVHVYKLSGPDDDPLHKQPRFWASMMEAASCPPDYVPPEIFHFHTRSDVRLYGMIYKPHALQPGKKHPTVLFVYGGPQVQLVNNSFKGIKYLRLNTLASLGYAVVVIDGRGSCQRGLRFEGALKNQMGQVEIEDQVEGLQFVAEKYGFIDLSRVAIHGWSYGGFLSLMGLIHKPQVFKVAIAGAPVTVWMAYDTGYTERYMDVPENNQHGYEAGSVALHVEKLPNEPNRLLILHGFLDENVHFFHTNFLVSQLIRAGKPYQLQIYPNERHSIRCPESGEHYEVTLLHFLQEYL

SMILES: CC#CCn1c(N2CCC[C@@H](N)C2)nc2c1c(=O)n(Cc1ccc(Br)cc1C(=O)O)c(=O)n2C
- clearance [1]: 3.67 mL/min/kg
- remaining at 2 h, 1 µM [2]: 99.2%
- remaining at 2 h, 1 µM [3]: 98.3%
- bioavailability [4]: < 7%
- AUC(0-inf) [5]: 23500 ng·h/mL
- viability at 48 h, 50 µM [6]: > 90%
- IC50 [7]: > 100 µM
- Cmax [8]: 65.5 µg/mL
- IC50 [9]: > 100 µM
- half-life [10]: 5.75 h

SMILES: CC#CCn1c(N2CCC[C@@H](N)C2)nc2c1c(=O)n(Cc1cc(Br)ccc1C(=O)O)c(=O)n2C
- IC50 [7]: > 100 µM
- IC50 [9]: > 100 µM

SMILES: CC#CCn1c(N2CCC[C@@H](N)C2)nc2c1c(=O)n(Cc1ccc(F)cc1C(=O)O)c(=O)n2C
- IC50 [7]: > 100 µM
- IC50 [9]: > 100 µM

SMILES: COc1cccc2c1C(=O)c1c(O)c3c(c(O)c1C2=O)C[C@@](O)(C(=O)CO)C[C@@H]3O[C@H]1C[C@H](N)[C@H](O)[C@H](C)O1 [DOXORUBICIN]
- viability at 48 h, 10 µM [11]: 35%

SMILES: CC#CCn1c(N2CCC[C@@H](N)C2)nc2c1c(=O)n(Cc1cccc(F)c1C(=O)OC)c(=O)n2C
- IC50 [7]: > 100 µM
- IC50 [9]: > 100 µM

SMILES: CC#CCn1c(N2CCC[C@@H](N)C2)nc2c1c(=O)n(Cc1cccc(F)c1C(=O)O)c(=O)n2C
- IC50 [7]: > 100 µM
- IC50 [9]: > 100 µM

SMILES: CC#CCn1c(N2CCC[C@@H](N)C2)nc2c1c(=O)n(Cc1cc(Cl)ccc1C(=O)OC)c(=O)n2C
- IC50 [7]: > 100 µM
- IC50 [9]: > 100 µM

SMILES: CC#CCn1c(N2CCC[C@@H](N)C2)nc2c1c(=O)n(Cc1ccccc1C(=O)OC)c(=O)n2C
- IC50 [7]: > 100 µM
- IC50 [9]: > 100 µM

SMILES: CC#CCn1c(N2CCC[C@@H](N)C2)nc2c1c(=O)n(Cc1ccc(Br)cc1C(=O)OCc1oc(=O)oc1C)c(=O)n2C
- remaining at 2 h, 1 µM [2]: 8.32%
- remaining at 2 h, 1 µM [3]: 2.11%
- metabolised at 2 h, 1 µM [12]: 100%
- degraded at 2 h, 1 µM [13]: 100%
- metabolised at 5 min, 1 µM [14]: 50%

SMILES: CC#CCn1c(N2CCC[C@@H](N)C2)nc2c1c(=O)n(Cc1ccc(Br)cc1C(=O)OC)c(=O)n2C
- remaining at 2 h, 1 µM [2]: 99.4%
- remaining at 2 h, 1 µM [3]: 54.2%
- viability at 48 h, 20 µM [15]: 70%
- IC50 [7]: > 100 µM
- IC50 [9]: > 100 µM

SMILES: CC#CCn1c(N2CCC[C@@H](N)C2)nc2c1c(=O)n(Cc1c(OC)cccc1C(=O)O)c(=O)n2C
- IC50 [7]: > 100 µM
- IC50 [9]: > 100 µM

SMILES: CC#CCn1c(N2CCC[C@@H](N)C2)nc2c1c(=O)n(Cc1cc(C#N)ccc1C(=O)O)c(=O)n2C
- IC50 [7]: > 100 µM
- IC50 [9]: > 100 µM
